Settings: human, in vivo
Method: The patients received [^3H]-labeled drug applied directly on the affected breasts at specified intervals ranging from 12 hours to 7 days before surgery to excise diseased tissue. Breast tissue from three regions: the tumor, tissue immediately surrounding the tumor, and normal tissue, was excised and immediately frozen in liquid nitrogen. Additionally, plasma and urine samples were obtained at scheduled intervals and frozen until analysis.

SMILES: CCC(=C(c1ccc(O)cc1)c1ccc(OCCN(C)C)cc1)c1ccccc1 [4-hydroxy tamoxifen, 1-[4-(2-N-dimethylaminoethoxy)phenyl]-1-(4-hydroxyphenyl)-2-phenylbut-1-ene]
- metabolism in cytosolic and nuclear fractions of breast tissue: remained unmetabolized except for limited isomerization from the Z to the E form
- retention in the breast: approximately 4 days
- subcellular distribution in breast tissue: concentrated predominantly in the cytosolic and nuclear fractions of breast tissue

— patent publication US8048927B2 (Besins Healthcare Luxembourg, priority 2004, dated 2011)
